# Assay results from patent US11865103B2, “Methods of treating disorders associated with glycosylation defective proteins” (CASE WESTERN RESERVE UNIVERSITY, priority 2016, dated 2024).
# System: hCLRN1^N48K-YFP; clrn1^KO/KO larvae
# Assay: Survival rate of hCLRN1^N48K-YFP; clrn1^KO/KO zebrafish larvae under ART treatment, 6.5 to 27 dpf
# Format: in vivo
# Settings: for Survival rate and swimming behavior beyond 25 dpf: untreated 5%
# Description: The startle response and swimming behavior of the clrn1^+/+ larvae, clrn1^KO/KO larvae, hCLRN1-YFP; clrn1^KO/KO larvae and hCLRN1^N48K-YFP; clrn1^KO/KO larvae were recorded at 6.5dpf, 10.5dpf, 16.5dpf and 27dpf as described earlier (Table-1). The extracellular microphonics potentials were recorded at 6dpf to confirm the hair cell function in these humanized zebrafish models for hCLRN1 (hCLRN1-YFP; clrn1^KO/KO larvae larvae) and USH3-CLRN1^N48Kmutant (hCLRN1^N48K-YFP; clrn1^KO/KO larvae) as described earlier (FIG. 5).
# To verify the degree of overall rescue in swimming behavior (hair cell function) and prolongation of life span by ART treatment in the hCLRN1^N48K-YFP; clrn1^KO/KO zebrafish larvae, survival rate, swimming behavior and startle response were observed longitudinally from 6.5 to 27 dpf (Table 1). For this rescue experiment, we followed two regimens of ART treatment. Regimen I, 35 larvae from hCLRN1^N48K-YFP; clrn1^KO/KO genotype were treated with 0.4 uM ART from 3 to 7 dpf (5 days of treatment during inner ear development and hair cell maturation). Regimen II, 20 larvae from hCLRN1^N48K-YFP; clrn1^KO/KO genotype were treated with 0.4 uM ART from 3 to 12 dpf (10 days of treatment overlapping development and post-development of inner ear anatomy and hair cell maturation). At 6.5 dpf, the swimming behavior and startle response of hCLRN1^N48K-YFP; clrn1^KO/KO larvae from ART treatment regimen I and II, were indistinguishable from that of clrn1^+/+ and hCLRN1-YFP; clrn1^KO/KO larvae. About 75% (Regimen I+II: 41 larvae) of ART treated hCLRN1^N48K-YFP; clrn1^KO/KO larvae had clrn1^+/+ equivalent startle response. In regimen I and II, the survival rate and swimming behavior of hCLRN1^N48K-YFP; clrn1^KO/KO larvae beyond 25 dpf shown significant improvement from 5% in untreated hCLRN1^N48K-YFP; clrn1^KO/KO larvae to 40% (n=14) and 45% (n=[…]), respectively. […] Overall, result confirms that ART is not only able to correct the trafficking defect of hCLRN1^N48K protein, but also able to help in normal hair cell functioning of hair cells from hCLRN1^N48K-YFP; clrn1^KO/KO zebrafish and delay onset progressive loss of hair cell function.
# [1] = Regimen I: 0.4 μM ART from 3 to 7 dpf, 6.5 dpf
# [2] = Regimen I: 0.4 μM ART from 3 to 7 dpf, 10.5 dpf
# [3] = Regimen I: 0.4 μM ART from 3 to 7 dpf, 15 dpf
# [4] = Regimen I: 0.4 μM ART from 3 to 7 dpf, 16.5 dpf
# [5] = Regimen I: 0.4 μM ART from 3 to 7 dpf, 27 dpf
# [6] = Regimen II: 0.4 μM ART from 3 to 12 dpf, 6.5 dpf
# [7] = Regimen II: 0.4 μM ART from 3 to 12 dpf, 10.5 dpf
# [8] = Regimen II: 0.4 μM ART from 3 to 12 dpf, 15 dpf
# [9] = Regimen II: 0.4 μM ART from 3 to 12 dpf, 16.5 dpf
# [10] = Regimen II: 0.4 μM ART from 3 to 12 dpf, 27 dpf
structure (smiles),measurement,setting,value
"C[C@@H]1CC[C@H]2[C@@H](C)C(=O)O[C@@H]3O[C@@]4(C)CC[C@@H]1[C@]32OO4 [ART, Artemisinin]",Survival rate,[1],(100%)
same,"Survival rate, number of surviving larvae",[1],35
same,Survival rate,[2],(85.71%)
same,"Survival rate, number of surviving larvae",[2],30
same,Survival rate,[3],(68.57%)
same,"Survival rate, number of surviving larvae",[3],24
same,Survival rate,[4],(54.29%)
same,"Survival rate, number of surviving larvae",[4],19
same,Survival rate,[5],(40%)
same,"Survival rate, number of surviving larvae",[5],14
same,Survival rate and swimming behavior beyond 25 dpf,Regimen I: 0.4 uM ART from 3 to 7 dpf,40%
same,Survival rate,[6],(100%)
same,"Survival rate, number of surviving larvae",[6],20
same,Survival rate,[7],(90%)
same,"Survival rate, number of surviving larvae",[7],18
same,Survival rate,[8],(65%)
same,"Survival rate, number of surviving larvae",[8],13
same,Survival rate,[9],(65%)
same,"Survival rate, number of surviving larvae",[9],13
same,Survival rate,[10],(45%)
same,"Survival rate, number of surviving larvae",[10],9
same,Survival rate and swimming behavior beyond 25 dpf,Regimen II: 0.4 uM ART from 3 to 12 dpf,45%
